The values that follow come from PMC4222540 (Biochemistry, 2014).

Test [1] addresses T1, cPAH D139A (Chromobacterium violaceum, UniProt P30967, D139A).
T1 sequence (P30967 1-297 D139A): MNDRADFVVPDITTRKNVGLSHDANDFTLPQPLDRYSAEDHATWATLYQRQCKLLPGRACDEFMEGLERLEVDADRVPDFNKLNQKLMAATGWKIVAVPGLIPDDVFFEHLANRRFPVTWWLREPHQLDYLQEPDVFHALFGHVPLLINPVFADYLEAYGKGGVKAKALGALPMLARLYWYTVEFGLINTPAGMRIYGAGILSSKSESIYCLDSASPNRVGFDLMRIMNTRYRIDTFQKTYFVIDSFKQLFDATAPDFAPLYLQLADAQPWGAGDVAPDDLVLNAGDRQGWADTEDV
Nature of the test: Steady-state kinetics of phenylalanine hydroxylation. The format is biochemical.

For test [2], the target named is T2, cPAH D139E (Chromobacterium violaceum, UniProt P30967, D139E).
T2 sequence (P30967 1-297 D139E): T1 sequence (P30967 1-297 D139A) with A139E
The test is described as above. The format is biochemical.

For test [3], the target named is T3, wild-type cPAH (Chromobacterium violaceum, UniProt P30967).
T3 sequence (P30967 1-297): T1 sequence (P30967 1-297 D139A) with A139D
The following applies: cited from earlier work.

For test [4], the target named is T4, cPAH D139K (Chromobacterium violaceum, UniProt P30967, D139K).
T4 sequence (P30967 1-297 D139K): T1 sequence (P30967 1-297 D139A) with A139K
In words: ITC, L-Phe binding to iron-reconstituted enzyme with excess BH4. On the technique in general: Isothermal titration calorimetry measures the heat released or taken up as one component is titrated into another.

Test [5] addresses T5, cPAH D139N (Chromobacterium violaceum, UniProt P30967, D139N).
T5 sequence (P30967 1-297 D139N): T1 sequence (P30967 1-297 D139A) with A139N
Described as above.

Test [6] has as its target T5, cPAH D139N. Nature of the test: Steady-state kinetics of phenylalanine hydroxylation. In kind it is biochemical.
Test [7] deals with T2, cPAH D139E. Nature of the test: ITC, L-Phe binding to iron-reconstituted enzyme with excess BH4.
In test [8] the target is T1, cPAH D139A. The test is described as above.
Where [9] appears, read: D139K, 1 mM Phe into 50 μM protein, 50 μM FeSO4, 200 μM BH4, anaerobic, 25 °C.
The mark [10] stands for this setting: D139N, 1 mM Phe into 50 μM protein, 50 μM FeSO4, 200 μM BH4, anaerobic, 25 °C.
Where [11] appears, read: D139E, 1 mM Phe into 50 μM protein, 50 μM FeSO4, 200 μM BH4, anaerobic, 25 °C.
[12] abbreviates: D139A, 1 mM Phe into 50 μM protein, 50 μM FeSO4, 200 μM BH4, anaerobic, 25 °C.

Where a chain is given by its changes, count along the chain named.

For orientation: Kd means the free concentration of one partner at which half of the binding sites on the other are occupied at equilibrium, for simple one-to-one binding. `N[C@@H](Cc1ccccc1)C(=O)O` [L-Phe, phenylalanine]: the “fold decrease in kcat/KM for phenylalanine vs wild type” value in test [1] came to 81 fold; in test [2], 7 fold; in test [6] it was 17 fold. The Kd is 37 ± 0.3 µM in test [3]; 31 ± 5 µM in test [4]; 37 ± 3.7 µM in test [5]; 55 ± 18 µM in test [7]; 39 ± 12 µM in test [8]. For the same compound, the “N (ITC stoichiometry)” value is recorded as 0.8 in test [3]; 0.8 in test [4] (setting [9]); 0.9 in test [5] (setting [10]); 0.6 in test [7] (setting [11]); 1 in test [8] (setting [12]). Further, the ΔH result in test [3] was “–7.9 ± 0.8 kcal mol^–1”; in test [4] (setting [9]), “–9.4 ± 1.3 kcal mol^–1”; in test [5] (setting [10]), “–8.5 ± 0.7 kcal mol^–1”; in test [7] (setting [11]) it was “–13.2 ± 6.0 kcal mol^–1”; in test [8] (setting [12]), “–10.5 ± 1.9 kcal mol^–1”. Besides, the ΔS result in test [3] is “–6 cal mol^–1”; in test [4] (setting [9]) it was “–11 cal mol^–1”; in test [5] (setting [10]), “–8 cal mol^–1”; in test [7] (setting [11]) it was “–25 cal mol^–1”; in test [8] (setting [12]) it was “–15 cal mol^–1”.
